In US20220330594A1 (WisTa Laboratories Ltd., priority 2019, published 2022):
Structures can show the parent of a compound that is named as a salt.

Key:
[1] = system: ACh levels in the hippocampus; assay: Hippocampal ACh microdialysis with rivastigmine and scopolamine in the perfusion fluid; assay type: in vivo, wild type mice
From the text: Under the condition of cholinesterase inhibition used in these experiments (a very small amount of a cholinesterase inhibitor, 100 nanomolar rivastigmine, added to the perfusion fluid), ACh levels in the hippocampus rise, and when they rise strongly enough, they limit additional ACh release by activating pre-synaptic muscarinic receptors of the M2/M4 subtype (so-called negative feedback receptors).
In this situation, adding scopolamine ([…]) to the perfusion fluid blocks these presynaptic receptors and, as a consequence, ACh levels rise by 3-5 fold. The fact that LMTM is not additive with rivastigmine in these experiments supports the conclusion that LMTM has a different mechanism of action from rivastigmine. In other words, although LMTM has been described as being a weak inhibitor of cholinesterases in high concentrations, the present effects seem to be unrelated to cholinesterase inhibition, because there is no additive effect with small quantities of rivastigmine.

[2] = system: acetylcholine (ACh) levels in hippocampus; assay: Hippocampal acetylcholine levels by implanted microdialysis probe and HPLC; assay type: in vivo; settings: wild-type mice
Method: […] Rivastigmine was administered subcutaneously with an Alzet minipump whereas LMTM was administered by oral gavage. Levels of ACh were measured in hippocampus using an implanted microdialysis probe and HPLC analysis of the extracellular fluid.
Data are presented as group averages and standard errors of mean and were analysed using parametric statistics, with alpha set to 0.05.

[3] = system: synaptophysin; assay: Quantitative immunohistochemistry of synaptophysin in brain sections; assay type: in vivo; settings: wild-type mice
Method: (§1) Wild-type and L1 mice (n=7-16 for each group) were pre-treated with rivastigmine (0.1 or 0.5 mg/kg/day) or memantine (2 or 20 mg/kg/day) or vehicle for 5 weeks by gavage. For the following 6 weeks, LMTM (5 and 15 mg/kg) or vehicle were added to this daily treatment regime, also by gavage. Animals were tested behaviourly during weeks 10 and 11 using a problem solving task in the open field water maze and then sacrificed for immunohistochemical and other tissue analyses.

[4] = system: Mitochondrial complex IV; assay: Direct measurement of mitochondrial complex IV activity after treatment; assay type: in vivo; settings: wild type mice
Method: as §1, with “The treatment schedule used to study the negative interaction between symptomatic treatments and LMTM was designed to model the clinical situation in which subjects are first treated chronically with a cholinesterase inhibitor or memantine before receiving LMTM. In what follows, we summarise some of the key results obtained for the AChEI, rivastigmine. Wild-type” for “Wild-type”

[5] = system: wild-type mice; assay: Behaviour: problem solving task in the open field water maze; assay type: in vivo
Method: as §1, with “The treatment schedule used to study the negative interaction between symptomatic treatments and LMTM was designed to model the clinical situation in which subjects are first treated chronically with a cholinesterase inhibitor or memantine before receiving LMTM. In what follows, we summarise some of the key results obtained for the AChEI, rivastigmine. Wild-type” for “Wild-type”

[6] = system: tau transgenic L1 mice; assay: Treatment effects of LMTM and rivastigmine in tau transgenic L1 mice; assay type: in vivo; settings: results not shown
From the text: In the L1 mouse model which was used in some of the present studies, there is over-expression of a three-repeat tau fragment encompassing residues 296-390 of the 2N4R tau isoform under the control of the Thy 1 promotor in an NMRI mouse strain (WO2002/059150). This fragment corresponds to the segment of tau first identified within the proteolytically stable core of the PHF (Wischik et al., 1988a; Wischik et al., 1988b) and recently confirmed by cryo-electronmicroscopy of PHFs in AD and tau filaments in Pick's disease (Fitzpatrick et al., 2017; Falcon et al., 2018).
The treatment schedule used to study the negative interaction between symptomatic treatments and LMTM was designed to model the clinical situation in which subjects are first treated chronically with a cholinesterase inhibitor or memantine before receiving LMTM. In what follows, we summarise some of the key results obtained for the AChEI, rivastigmine. […]
For measurement of acetylcholine (ACh) levels in hippocampus, animals (wild-type or L1) were treated with LMTM (5 mg/kg/day for 2 weeks) after prior treatment for 2 weeks with or without rivastigmine (0.5 mg/kg/day). […] Levels of ACh were measured in hippocampus using an implanted microdialysis probe and HPLC analysis of the extracellular fluid.

[7] = LMTM alone 5 or 15 mg/kg/day, approximate rounded percentage

Row | Structure (SMILES) | rise in ACh levels in the hippocampus ([1]; scopolamine (μM) added to perfusion fluid containing 100 nanomolar rivastigmine) | increase in basal ACh levels in hippocampus ([2]; LMTM 5 mg/kg/day for 2 weeks, oral gavage, significant (FIG. 1A)) [fold] | ACh release, ↑ (increase) [2, 7] | Synaptophysin, ↑ (increase) [3, 7] | increase in mean synaptophysin levels ([3]; mean of hippocampus, visual cortex, diagonal band and septum, LMTM alone (FIG. 1B)) [fold] | complex IV activity following LMTM treatment [4] | spatial recognition memory [5] | effect on ACh levels in scopolamine experiments ([1]; wild type mice, 100 nanomolar rivastigmine in the perfusion fluid, scopolamine blocking M2/M4 receptors) | treatment effects in L1 mice compared with wild-type mice [6]
1 | CN1[C@@H]2C[C@@H](OC(=O)[C@H](CO)c3ccccc3)C[C@H]1[C@@H]1O[C@@H]12 [scopolamine, reference compound] | 3-5 fold |  |  |  |  |  |  |  | 
2 | CN(C)c1ccc2c(c1)Sc1cc(N(C)C)ccc1N2 [LMTM, hydromethylthionine mesylate] |  | 2 | ↑ × 200% | ↑ × 300% | 3 | did not show any increase | not associated with improvement | less than that seen with rivastigmine alone | larger and more generalised
